According to US3959359A, “Phenoxyalkylamines, process for their preparation and therapeutical composition containing same” (priority 1968, dated 1976):
Read-outs that look alike come from different tables or passages of the source.

How the values were obtained:
duodenum of rats = assay: Beta-stimulant action, inhibition of acetylcholine-induced contraction of isolated duodenum; design: species or system rat (Sprague Dawley); conditions: 0.1 γ/ml of bath; for % Inhibition of cholinergic contraction (beta-stimulant action): acetylcholine 0.1 γ/ml; for beta-stimulant action: in words
Procedure: A comparison was made of the beta-stimulant action of the same compounds as used in the above experiment.
The duodenum of rats (Sprague Dawley strain) weighing about 150 g is taken immediately post-mortem. The test organ is immediately placed in a suitable cell for the isolated organ (oxygenated Tyrode's solution maintained at a temperature of 37°C).
Addition of acetylcholine (0.1 γ/ml) to the bath induces a contraction of the organ which is immediately transmitted via a strain gauge to a potentiometric recording device.
Addition of a beta-stimulant material causes inhibition of this […].
A comparison was made between the actions of various materials on cholinergic contractions.

[1] = system: rat uterus (uterine cornuae); assay: Uterine relaxant activity, inhibition of spontaneous contractions of the isolated uterus (De Jalon method); design: species or system rat (Sprague Dawley); conditions: 0.5 γ/ml of bath; for uterine relaxant effect: in words
Procedure: The study was conducted on rat uterus, using the following compounds:
The conventional method of De Jalon, Bayo and De Jalon (1945). Farmacoter. act. 3, 313 -- also reported in the book : "Pharmacological Experiments on Isolated Preparations" by the staff of the Department of Pharmacology, University of Edinburgh, published by E. & S. Livingstone Ltd, London -- was used, the pharmacological investigation being conducted on the uterine cornuae of female rats (Sprague Dawley strain) kept alive in a survival liquid.
A tank containing Tyrode's solution is maintained at a constant temperature of 32°C. The test organ is suspended to a strain gauge for the purpose of recording the contractions on a potentiometric recorder. The uterine cornuae are taken from non-gravid puberal female rats having an average weight of 160 g.
The day prior to the test, the animals are administered a di-ethyl-stilboestrol injection. Postmortem, the cornuae are isolated as rapidly as possible and a 15 mm fragment from which the connective tissue has been removed is placed in the experimental cell.
During oestrum, regular spontaneous contractions (FIG. 1) are noted; such oscillations are stable within 30-60 minutes, after washing several times with suitably oxygenated Tyrode's solution.
Addition to the bath of uterine relaxant material produces, at a low dosage, a total inhibition of such spontaneous contractions.

[2] = system: isolated heart (coronary rate of flow); assay: Coronary dilator activity, Langendorff's method on the isolated heart; design: species or system rabbit (Fauve de Bourgogne); ED 50: unit not given beside the values; conditions: for activation at 0.005 mg: 5 γ injected; for activation at 0.01 mg: 10 γ injected; for activation at 0.02 mg: 20 γ injected; for activation at 0.04 mg: 40 γ injected; for activation at 0.08 mg: 80 γ injected; for ED 50: 50% increase of original coronary rate of flow; for activation at 0.16 mg: 160 γ injected; for activation at 0.025 mg: 25 γ injected; for activation at 0.05 mg: 50 γ injected
Procedure: The coronary dilator activity was studied according to Langendorff's method on the isolated heart.
The tests were carried out on the hearts of young Fauve de Bourgogne (about 1.5 kg) rabbits. The hearts were rapidly taken out and maintained in surviving condition by perfusion of a physiological (Tyrode type) liquid heated at 37°C and oxygenated under a constant pressure of 50-60 cm of water. The heart was perfused countercurrently.
Volumetric determinations of the coronary rate of flow were then recorded at thirty second intervals.
After stabilization of the basic rate of flow, the test compound, dissolved in physiological saline solution, was injected in the perfusion liquid, in a volume of from 0.05 to 0.2 ml.
In the same heart, increasing dosages of all three compounds were tested by injecting alternatively a predetermined dose for each one of the three compounds.
Each injection was made 4-5 minutes after a stable rate of flow was attained.
The tests were carried out as above with three rabbits.

patients = assay: Clinical experiments in patients with anginose states or ischemic diseases of the heart; type: in vivo, human
Procedure: The compound prepared in example 4 (1-(1-hydroxypropyl)-4-[2-(1-methyl-phenethylamino)-ethoxy]-benzene hydrochloride) was experimented in four different Cardiology Services. 211 patients were treated with this compound. These patients suffered from different anginose states or from ichemic diseases of the heart (coronary failures or after-effects of infarct). […] Therefore the tolerance is excellent.

beta receptor = conditions: International Conference on Duvadilan, May 1962; cited from earlier work
[3] = cited from earlier work
[4] = compared to Isoxsuprine; cited from earlier work
uterus = conditions: in words; cited from earlier work
[5] = Oryctolagus cuniculus, Table I, heart A, read-out: increase of coronary rate of flow
[6] = Oryctolagus cuniculus, Table I, heart B, read-out: increase of coronary rate of flow
[7] = Oryctolagus cuniculus, Table II, heart No. 1, read-out: increase of coronary rate of flow
[8] = Oryctolagus cuniculus, Table II, heart No. 2, read-out: increase of coronary rate of flow
[9] = Oryctolagus cuniculus, Table II, heart No. 3, read-out: increase of coronary rate of flow

Structure (SMILES)	% Inhibition of cholinergic contraction (beta-stimulant action) (duodenum of rats) [%]	beta-stimulant action (duodenum of rats)	% Inhibition of spontaneous uterine contractions [1] [%]	uterine relaxant effect [1]	activation at 0.005 mg [2, 5] [%]	activation at 0.01 mg [2, 5] [%]	activation at 0.02 mg [2, 5] [%]	activation at 0.04 mg [2, 5] [%]	activation at 0.01 mg [2, 6] [%]	activation at 0.02 mg [2, 6] [%]	activation at 0.04 mg [2, 6] [%]	activation at 0.08 mg [2, 6] [%]	ED 50 ([2]; Table I, heart A)	ED 50 ([2]; Table I, heart B)	activation at 0.04 mg [2, 7] [%]	activation at 0.08 mg [2, 7] [%]	activation at 0.16 mg [2, 7] [%]	activation at 0.02 mg [2, 8] [%]	activation at 0.04 mg [2, 8] [%]	activation at 0.04 mg [2, 9] [%]	also measured
CC(COc1ccccc1)NC(C)C(O)c1ccccc1 (centres unmarked) [Compound D, reference compound]	100	highly beta-stimulant action	70	reduced uterine relaxant effect																	
CCC(=O)c1ccc(OCCNC(C)Cc2ccccc2)cc1 (centres unmarked) [Example 1, 4-[2-(1-methyl-phenethylamino)-ethoxy]-propiophenone]	15	only a slight beta-stimulant effect	0	absolutely no uterine relaxant effect	12	34	47	50	8	37	50	62	27 γ	44 γ							activation at 0.08 mg [2, 5]: 80.5%
CCC(O)c1ccc(OCCNC(C)Cc2ccccc2)cc1 (centres unmarked) [Example 4, 1-(1-hydroxy-propyl)-4[2-(1-methyl-phenethylamino)-ethoxy]-benzene]	15	only a slight beta-stimulant effect	0	absolutely no uterine relaxant effect	30	33	67	93	11	30	55	78	11 γ	35 γ	33	54	78	50	80	46	contra-indication (patients; 211 patients): no contra-indication; modification of cardiac frequency and arterial pressure (patients; 211 patients): no modification of the cardiac frequency and of the arterial pressure; tolerance (patients; 211 patients): excellent; favourable results (number of patients) (patients; 211 patients treated): 172 patients; favourable results (share of patients) (patients; 211 patients treated): 81.5%; activation at 0.002 mg ([2]; Oryctolagus cuniculus, Table I, heart A, 2 γ injected, read-out: increase of coronary rate of flow): 10%; activation at 0.01 mg [2, 8]: 33%; activation at 0.02 mg [2, 9]: 17%; activation at 0.08 mg [2, 9]: 50%; activation at 0.16 mg [2, 9]: 75%
CCCC(=O)c1ccc(OCCNC(C)Cc2ccccc2)cc1 (centres unmarked) [Example 5, 4-[2-(1-methyl-phenethylamino)-ethoxy]-butyrophenone]						21			16				24 γ	45 γ							activation at 0.025 mg [2, 5]: 57%; activation at 0.05 mg [2, 5]: 64%; activation at 0.025 mg [2, 6]: 39%; activation at 0.05 mg [2, 6]: 50%
CC(COc1ccccc1)NC(C)C(O)c1ccc(O)cc1 (centres unmarked) [Isoxsuprine, 1-(p-hydroxyphenyl)-2-(1-methyl-2 phenoxyethylamino) propanol-1, reference compound]	100	highly beta-stimulant action	100	total uterine relaxant action											8	20	50	17	43	0	mechanism of uterine relaxant activity (beta receptor): essentially due to beta receptor activation; activation at 0.08 mg [2, 8]: 60%; activation at 0.08 mg [2, 9]: 17%; activation at 0.16 mg [2, 9]: 33%; activation at 0.32 mg ([2]; Oryctolagus cuniculus, Table II, heart No. 3, 320 γ injected, read-out: increase of coronary rate of flow): 50%; activation at 0.64 mg ([2]; Oryctolagus cuniculus, Table II, heart No. 3, 640 γ injected, read-out: increase of coronary rate of flow): 75%; ventricular stimulability ([3]; in view of beta-stimulant properties): increases ventricular stimulability; possible occurrence of extrasystoles ([3]; particularly ventricular extrasystoles): increases also the possible occurrence of extrasystoles
CC(COc1ccccc1)NC(C)Cc1ccccc1 (centres unmarked) [N-(2-phenyl-1-methyl-ethyl)-2-phenoxy-1-methyl-ethylamine]																					vasodilator activity [4]: reduced vasodilator activity compared to Isoxsuprine; uterus relaxant activity (uterus): uterus relaxants
